pIC50: −log10 of the molar value. Structures can show the parent of a compound that is named as a salt. Peptide text beside a SMILES is read from it. * marks the point of attachment. Palmitoyl = CCCCCCCCCCCCCCCC(=O)*; Myristoyl = CCCCCCCCCCCCCC(=O)*
Tests used:
Type in all cases: cell-based
[1] = target: T1, human muscarinic receptor M3 (Homo sapiens, UniProt P20309); assay: Inhibition of M3-acetylcholine activation, Fluo-4 NW calcium fluorescence; details: 50 min incubation, 10 nM acetylcholine; for inhibition at 10 µM / inhibition at 50 µM / inhibition at 100 µM: 50 min
T1 construct: expressed in transfected cells; cultured in Ham's F-12 medium
T1 sequence (P20309 whole entry): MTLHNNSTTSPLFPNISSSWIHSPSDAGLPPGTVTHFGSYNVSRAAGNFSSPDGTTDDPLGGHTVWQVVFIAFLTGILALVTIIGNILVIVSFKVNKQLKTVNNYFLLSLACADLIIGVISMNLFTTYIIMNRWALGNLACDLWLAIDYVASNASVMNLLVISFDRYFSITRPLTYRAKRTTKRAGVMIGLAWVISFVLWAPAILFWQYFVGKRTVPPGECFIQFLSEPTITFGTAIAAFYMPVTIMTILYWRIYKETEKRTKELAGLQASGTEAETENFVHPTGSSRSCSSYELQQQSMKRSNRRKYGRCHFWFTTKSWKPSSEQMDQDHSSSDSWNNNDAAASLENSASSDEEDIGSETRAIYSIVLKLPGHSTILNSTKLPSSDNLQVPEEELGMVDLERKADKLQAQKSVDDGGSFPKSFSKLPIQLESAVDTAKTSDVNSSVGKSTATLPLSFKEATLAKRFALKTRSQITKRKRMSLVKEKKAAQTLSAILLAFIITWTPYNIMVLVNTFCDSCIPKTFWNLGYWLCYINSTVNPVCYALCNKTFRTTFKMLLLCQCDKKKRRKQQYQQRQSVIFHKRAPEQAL
Method: (§1) Epithelial stable cell line constitutively expressing human muscarinic receptor M3 was used to assess peptides activity. Cells were seeded in 96-well plates at 50% cell confluence in 100 μL of complete Ham's F-12 medium. After 24 hours, medium was removed and cells were incubated with 90 μL/well of a solution of the peptides of the invention at 100, 50 or 10 μM or DMSO as vehicle. Peptides were dissolved in Fluo-4 NW (Invitrogen) fluorescent calcium probe assay buffer containing Probenecid, following manufacturer's instructions for 50 min at 37° C. in a CO2 incubator. Afterwards, M3 activity was determined by reading the fluorescence in a FLUOstar Galaxy reader (BMG LabTechnologies) using 485 nm filter for excitation and 520 nm for emission, recording signal before and after M3 activation with 10 nM acetylcholine. Fluorescence measurements were normalized to acetylcholine maximum fluorescence signal in vehicle treated cells. Atropine (100 nM) was used as positive control for inhibition. Inhibition values of M3 activity were calculated as percentages by considering maximum fluorescence corresponding to acetylcholine-M3 activation and minimum as non-stimulated cells. Table D details inhibition values of M3 activity inhibition obtained for the peptides of invention.

[2] = test system: human epidermal keratinocytes (HEKa); assay: MTT cell viability assay in keratinocytes; details: as TFA-salt, any concentration assessed; keratinocytes and fibroblasts
Method: This example evaluated the effects of the tested peptides on human epidermal keratinocytes and dermal fibroblasts cell viability. The 3-(4,5-dimethyl-2-thiazolyl)-2,5-diphenyl-2H-tetrazolium bromide (MTT) assay was used to that monitor cell proliferation and viability based on the capacity of the mitochondrial dehydrogenase enzyme to break and transform the tetrazolium rings of MTT.
Epidermal keratinocytes were seeded in a previously coated 96 well-plate at 50-60% confluence in 100 μL of supplemented medium. Dermal fibroblasts were seeded in a 96 well-plate at 70% confluence in 100 μL supplemented medium. 24 hours after seeding, medium was replaced by fresh supplemented medium containing peptides dissolved at concentration range between 0.1 and 100 μM or SDS as reference of 100% toxicity or DMSO as vehicle for peptides. All test substances were incubated for 24 hours at 37° C. and 5% CO2. Afterwards, medium was replaced by 0.5 mg/mL of MTT solution for 4 h in complete medium. Then, medium was carefully removed and 150 μL/well of DMSO were added to solubilize formazan crystals. Plate was protected from light, shaken for 60 seconds and optical density was measured at 570 nm with a reference filter of 620 nm. Toxicity values were calculated as percentages by considering maximum cytotoxic effect to SDS-treated cells and minimum as non-treated cells. Table G details effects of Seq. ID No 1, 5, 6 and 7 peptides on keratinocytes and fibroblasts as percentage of cell viability inhibition.

[3] = target: T1, human muscarinic receptor M3; assay: Dose-response inhibitory effect on M3 activity (IC50)
Method: as §1
Characterization of Seq. ID No. 1, 3-8 peptides efficiency was obtained by calculating half maximal inhibitory concentration (IC50). For this purpose, experimental procedure regarding cell culture and fluorescent calcium probe assay was followed as described on Example 2. Peptides were assessed at concentrations between 0.1 and 100 μM and incubated for 1 hour together with Fluo-4 NW probe. Afterwards, M3 activity was determined by reading the fluorescence in a FLUOstar Galaxy reader (BMG LabTechnologies) using 485 nm filter for excitation and 520 nm for emission, recording signal before and after M3 activation with acetylcholine. Fluorescence measurements were standardized with regard to the maximum fluorescence signal detected with acetylcholine stimulation in vehicle treated cells. Inhibition values of M3 activity were calculated as percentages by considering maximum fluorescence corresponding to acetylcholine-M3 activation and minimum as non-stimulated cells. Percentage inhibition data was fitted to a sigmoidal curve to obtain IC50. Table F details inhibition values for IC50

[4] = target: T1, human muscarinic receptor M3; assay: Time-dependent inhibition of M3 activity, Fluo-4 NW calcium fluorescence; details: peptide 50 μM, read-out: % Inhibition hM3 receptor activity
Method: Peptides of invention were designed to target the intracellular region of M3. Therefore, minimum time required to detect inhibitory effect on M3 activity was evaluated. For this purpose, inhibitory effect of peptides Seq. […] Epithelial stable cell line constitutively expressing human muscarinic receptor M3 was used to assess peptides activity. Cells were seeded in 96-well plates at 50% cell confluence in 100 μL of complete Ham's F-12 medium. After 24 hours, medium was removed and cells were incubated with 90 μL/well of Fluo-4 NW (Invitrogen) fluorescent calcium probe assay buffer containing probenecid, following manufacturer's instructions at 37° C. in a CO2 incubator. Peptides (50 μM), vehicle and atropine were incubated either with the probe (1 hour pre-incubation) or during fluorescence reading (direct effect). Afterwards, M3 activity was recorded for 20 cycles and direct effect peptides were added on cycle 3 after baseline assessment. Acetylcholine was added on cycle 13. Therefore, direct effect of peptides was monitored for 25 minutes. Inhibition values of M3 activity were calculated as percentages by considering maximum fluorescence corresponding to vehicle or non-treated cells acetylcholine-M3 activation and minimum as non-stimulated cells. Table E details inhibition values of M3 activity inhibition obtained for the peptides of invention.

[5] = 25 min, 25 minutes (direct effect)
[6] = 60 minutes (1 hour pre-incubation)

Row | Molecule | % M3 inhibition ([1]; peptide 10 μM) [%] | pIC50 [3] | inhibition at 50 µM [4, 5] [%] | inhibition at 50 µM [4, 6] [%] | inhibition at 10 µM ([1]; peptide 10 μM) [%] | inhibition at 50 µM ([1]; peptide 50 μM) [%] | inhibition at 100 µM ([1]; peptide 100 μM) [%] | further results
1 | Seq. ID No. 7 Acetyl: Nt-acetyl RVMYKMNKRDY, C terminus amidated (Ac-RVMYKMNKRDY-NH2) | 8.6 | – | – | – | – | – | – | % M3 inhibition ([1]; peptide 50 μM): 8.3%; % M3 inhibition ([1]; peptide 100 μM): 20.6%
2 | Seq. ID No. 6 Palmitoyl: Nt-palmitoyl RMYKMMAGMYLR, C terminus amidated (Palmitoyl-RMYKMMAGMYLR-NH2) | 34.5 | – | – | – | – | – | – | –
3 | CCCCCCCCCCCCCCCC(=O)N[C@@H](Cc1c[nH]c2ccccc12)C(=O)N[C@@H](CCSC)C(=O)N[C@@H](CCCNC(=N)N)C(=O)N[C@@H](CC(C)C)C(N)=O [Seq. ID No. 1 Palmitoyl (TFA salt)] (Palmitoyl-WMRL-NH2) | – | – | – | – | – | – | – | effect on cell proliferation [2]: did not affect cell proliferation
4 | Seq. ID No. 6 Acetyl: Nt-acetyl RMYKMMAGMYLR, C terminus amidated (Ac-RMYKMMAGMYLR-NH2) | 3.0 | – | – | – | – | – | – | % M3 inhibition ([1]; peptide 50 μM): 26.4%; % M3 inhibition ([1]; peptide 100 μM): 32.5%
5 | Seq. ID No. 8 Acetyl: Nt-acetyl RVMFKMFKRDY, C terminus amidated (Ac-RVMFKMFKRDY-NH2) | 21.5 | – | – | – | – | – | – | % M3 inhibition ([1]; peptide 50 μM): 12.4%; % M3 inhibition ([1]; peptide 100 μM): 26.1%
6 | CCCCCCCCCCCCCCCC(=O)N[C@@H](Cc1c[nH]c2ccccc12)C(=O)N[C@@H](CCSC)C(=O)N[C@@H](CC(N)=O)C(=O)N[C@@H](CC(C)C)C(=O)N[C@@H](CCCCN)C(=O)N[C@H](C(N)=O)[C@@H](C)O [Seq. ID No. 4 Palmitoyl] (Palmitoyl-WMNLKT-NH2) | – | 5.10 | 11.5 | 69.1 | 35.3 | 59.6 | 60.6 | –
7 | CCCCCCCCCCCCCCCC(=O)N[C@@H](Cc1c[nH]c2ccccc12)C(=O)N[C@@H](CCSC)C(=O)N[C@@H](Cc1ccccc1)C(=O)N[C@@H](CC(C)C)C(=O)N[C@@H](CCCCN)C(N)=O [Seq. ID No. 5 Palmitoyl (TFA salt)] (Palmitoyl-WMFLK-NH2) | – | – | – | – | – | – | – | effect on cell proliferation [2]: did not affect cell proliferation
8 | CCCCCCCCCCCCCC(=O)N[C@@H](CCCNC(=N)N)C(=O)N[C@H](C(=O)N[C@@H](CCSC)C(=O)N[C@@H](Cc1ccc(O)cc1)C(=O)N[C@@H](CCCCN)C(=O)N[C@@H](CCSC)C(=O)N[C@@H](CC(N)=O)C(=O)N[C@@H](CCCCN)C(=O)N[C@@H](CCCNC(=N)N)C(=O)N[C@@H](CC(=O)O)C(=O)N[C@@H](Cc1ccc(O)cc1)C(N)=O)C(C)C [Seq. ID No. 7 Myristoyl] (Myristoyl-RVMYKMNKRDY-NH2) | – | 4.26 | 16.4 | 82.7 | 15.9 | 54.8 | 92.4 | –
9 | Ac-RMYKMMAGMYLR-NH2 [Seq. ID No. 6 Acetyl (TFA salt)] | – | – | – | – | – | – | – | effect on cell proliferation [2]: did not affect cell proliferation
10 | Seq. ID No. 7 Palmitoyl: Nt-palmitoyl RVMYKMNKRDY, C terminus amidated (Palmitoyl-RVMYKMNKRDY-NH2) | 47.4 | – | – | – | – | – | – | –
11 | CCCCCCCCCCCCCCCC(=O)N[C@@H](Cc1c[nH]c2ccccc12)C(=O)N[C@@H](CCSC)C(=O)N[C@@H](CCCNC(=N)N)C(=O)N[C@@H](CC(C)C)C(N)=O [Seq. ID No. 1 Palmitoyl] (Palmitoyl-WMRL-NH2) | – | 4.42 | 25.1 | 69.5 | 15.4 | 70.9 | 95.6 | –
12 | CCCCCCCCCCCCCC(=O)N[C@@H](CCCNC(=N)N)C(=O)N[C@H](C(=O)N[C@@H](CCSC)C(=O)N[C@@H](Cc1ccccc1)C(=O)N[C@@H](CCCCN)C(=O)N[C@@H](CCSC)C(=O)N[C@@H](Cc1ccccc1)C(=O)N[C@@H](CCCCN)C(=O)N[C@@H](CCCNC(=N)N)C(=O)N[C@@H](CC(=O)O)C(=O)N[C@@H](Cc1ccc(O)cc1)C(N)=O)C(C)C [Seq. ID No. 8 Myristoyl] (Myristoyl-RVMFKMFKRDY-NH2) | – | 5.01 | 6.1 | 87.1 | 42.5 | 71.7 | 93.8 | –
13 | Seq. ID No. 8 Palmitoyl: Nt-palmitoyl RVMFKMFKRDY, C terminus amidated (Palmitoyl-RVMFKMFKRDY-NH2) | 32.7 | – | – | – | – | – | – | –
14 | CCCCCCCCCCCCCCCC(=O)N[C@@H](Cc1c[nH]c2ccccc12)C(=O)N[C@@H](CCSC)C(=O)N[C@@H](Cc1ccccc1)C(=O)N[C@@H](CC(C)C)C(=O)N[C@@H](CCCCN)C(N)=O [Seq. ID No. 5 Palmitoyl] (Palmitoyl-WMFLK-NH2) | – | 4.21 | -7.1 | 84.4 | 0 | 45.7 | 80.6 | –
15 | CCCCCCCCCCCCCC(=O)N[C@@H](CCCNC(=N)N)C(=O)N[C@@H](CCSC)C(=O)N[C@@H](Cc1ccc(O)cc1)C(=O)N[C@@H](CCCCN)C(=O)N[C@@H](CCSC)C(=O)N[C@@H](CCSC)C(=O)N[C@@H](C)C(=O)NCC(=O)N[C@@H](CCSC)C(=O)N[C@@H](Cc1ccc(O)cc1)C(=O)N[C@@H](CC(C)C)C(=O)N[C@@H](CCCNC(=N)N)C(N)=O [Seq. ID No. 6 Myristoyl] (Myristoyl-RMYKMMAGMYLR-NH2) | – | 4.26 | -20.2 | 54.7 | 14.8 | 56.4 | 92.1 | –
16 | Seq. ID No. 2 Acetyl: Nt-acetyl WMRLK, C terminus amidated (Ac-WMRLK-NH2) | 0.0 | – | – | – | – | – | – | % M3 inhibition ([1]; peptide 50 μM): 9.1%; % M3 inhibition ([1]; peptide 100 μM): 24.6%
17 | CCCCCCCCCCCCCCCC(=O)N[C@@H](Cc1c[nH]c2ccccc12)C(=O)N[C@@H](CCSC)C(=O)N[C@@H](CCCNC(=N)N)C(=O)N[C@@H](CC(C)C)C(=O)N[C@@H](CCCCN)C(=O)N[C@@H](C)C(N)=O [Seq. ID No. 3 Palmitoyl] (Palmitoyl-WMRLKA-NH2) | – | 4.90 | 16.4 | 73 | 41 | 73.7 | 75.7 | –
18 | Ac-RVMYKMNKRDY-NH2 [Seq. ID No. 7 Acetyl (TFA salt)] | – | – | – | – | – | – | – | effect on cell proliferation [2]: did not affect cell proliferation
19 | Seq. ID No. 5 Acetyl: Nt-acetyl WMFLK, C terminus amidated (Ac-WMFLK-NH2) | 3.9 | – | – | – | – | – | – | % M3 inhibition ([1]; peptide 50 μM): 6.2%; % M3 inhibition ([1]; peptide 100 μM): 15.1%
